{"source": "patent US7033784B1", "about": "“Method of producing an erythroid cell which is undifferentiated yet capable of expressing a heterologous protein” (Syngenta Limited, priority 1999, dated 2006)", "key": {"[1]": {"target": "T1, Locusta migratoria tyramine receptor (TyrLoc) (Locusta migratoria, UniProt Q25321)", "T1 construct": "The coding region of the TyrLoc cDNA was amplified by polymerase chain reaction (PCR) from pVJ12 and pVJ12-IEG; expressed in transfected cells", "T1 sequence (Q25321 12-484)": "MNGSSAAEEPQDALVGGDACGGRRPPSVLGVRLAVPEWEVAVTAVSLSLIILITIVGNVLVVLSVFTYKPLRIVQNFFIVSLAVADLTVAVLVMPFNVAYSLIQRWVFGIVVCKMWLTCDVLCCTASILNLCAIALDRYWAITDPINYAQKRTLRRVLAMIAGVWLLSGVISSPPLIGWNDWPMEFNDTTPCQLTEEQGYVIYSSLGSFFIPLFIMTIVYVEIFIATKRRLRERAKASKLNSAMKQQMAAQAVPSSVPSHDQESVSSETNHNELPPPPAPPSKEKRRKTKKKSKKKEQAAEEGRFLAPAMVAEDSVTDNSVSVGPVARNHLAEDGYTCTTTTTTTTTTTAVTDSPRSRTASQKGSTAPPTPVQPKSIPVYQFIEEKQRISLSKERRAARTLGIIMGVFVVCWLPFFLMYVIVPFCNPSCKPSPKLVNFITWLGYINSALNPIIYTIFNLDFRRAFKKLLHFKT", "experiment": "Ca2+ measurements (fura-2) in uninduced MEL-TyrLoc cells", "assay_type": "cell-based", "conditions": "for antagonism of the Ca2+ increase induced by TA: qualitative, data not shown for part", "method": "(§1) Elevations in intracellular Ca^2+ in response to stimulation with ligands of the tyramine receptor were measured as follows. Since MEL cells loose the ability to signal on differentiation, and as receptor expression was readily detectable without induction of the MEL cells, uninduced MEL C88L cells of the invention were used.\n(§2) Ca^2+ concentration was measured by using the acetoxymethyl (AM) ester of the fluorescent indicator fura-2 (Grynkiewicz G et al. (1985) J. Biol. Chem. 260 3440–3450). Cells were washed with NCF buffer (135 mM NaCl, 5 mM KCl, 6 mM glucose, 0.62 mM MgCl2.6H2O, 10 mM HEPES, pH 7.4 with 4 mM CaCl2) and resuspended at a concentration of 2.10^6 cells/ml in NCF buffer containing 2 μM fura-2-AM (Molecular Probes). After 1 hour incubation in the dark at 27° C., the cell suspension was subjected to centrifugation at 1200 rpm for 5 minutes, resuspended in an equal volume of NCF buffer and incubated for an additional 30 min in the dark. Aliquots were centrifuged as above and resuspended in 3 ml NCF buffer. Measurements of intracellular calcium were made fluorimetrically in a LS-50B Luminescence Spectrophotometer (Perkin-Elmer) in the presence and absence of the appropriate test chemical. Excitation wavelength alternated between 340 and 380 nm. The fluorescence intensity was monitored at an emission wavelength of 510 nm."}, "[2]": {"target": "T1, Locusta migratoria tyramine receptor (TyrLoc)", "experiment": "cAMP measurements (Scintillation Proximity Assay) in MEL-TyrLoc cells", "assay_type": "cell-based", "conditions": "for antagonism of the effect of TA on cAMP: 10 μM Fsk + 0.1 μM TA, yohimbine 100 nM to 1 nM, mianserin 10 nM, chlorpromazine 10 nM; for inhibition of forskolin-induced increase of cAMP: 10 μM Fsk + 1 nM to 10 μM TA, FIG. 6", "method": "(§3) The effect of TA on the cAMP level of the transformed and untransformed cells was investigated. MEL-C88L and MEL-TyrLoc cells were seeded in 6-well plates to a density of 8.10^5 cells/well and allowed to attach. The cell medium was removed and, in different wells, replaced with different NCF buffer solutions as follows: • (i) NCF+1 μM tyramine (TA), • (ii) NCF+10 μM forskolin (Fsk), • (iii) NCF+10 μM Fsk+1 nM to 10 μM TA. where NCF comprised 135 mM NaCl, 5 mM KCl, 6 mM glucose, 0.62 mM MgCl2, 10 mM Hepes pH 7.4 4 mM CaCl2.\nFor the use of other ligands than TA, the solutions were: • (iv) NCF+10 μM Fsk+1 μM OA, • (v) NCF+10 μM Fsk+0.1 μM TA+100 nM to 1 nM yohimbine, • (vi) NCF+10 μM Fsk+0.1 μM TA+10 nM mianserin; and • (vii) NCF+10 μM Fsk+0.1 μM TA+10 nM chlorpromazine.\n(§4) All solutions contained 200 μM […] (IBMX) in order to inhibit cAMP phosphodiesterase. In each study, triplicate wells were incubated with the same solution at 37° C. for exactly 30 min.\n(§5) In order to extract the cAMP, 100% ice-cold ethanol was added to each well to a final concentration of 65%. After 5 min incubation at room temperature, the solution was removed from the wells which were then rinsed with 65% ethanol. The eluates from the same well were then pooled together and evaporated using a speedvac. cAMP was then measured using the Scintillation Proximity Assay (Amersham), according to the manufacturers recommended procedure. This experiment was done in triplicate."}, "[3]": {"tested_on": "Untransformed MEL-C88L cells", "experiment": "cAMP measurements (Scintillation Proximity Assay) in untransformed MEL-C88L cells", "assay_type": "cell-based, Murine", "conditions": "200 μM IBMX, FIG. 5", "method": "as §3, §4, §5"}, "[4]": {"tested_on": "Untransformed MEL-C88L cells", "experiment": "Ca2+ measurements (fura-2) in untransformed MEL-C88L control cells", "assay_type": "cell-based, Murine", "conditions": "concentrations as high as 100 μM TA", "method": "as §1, §2"}, "[5]": {"target": "Dopamine Receptor (D-Dop1) (Drosophila melanogaster, UniProt P41596)", "sequence (P41596 20-511)": "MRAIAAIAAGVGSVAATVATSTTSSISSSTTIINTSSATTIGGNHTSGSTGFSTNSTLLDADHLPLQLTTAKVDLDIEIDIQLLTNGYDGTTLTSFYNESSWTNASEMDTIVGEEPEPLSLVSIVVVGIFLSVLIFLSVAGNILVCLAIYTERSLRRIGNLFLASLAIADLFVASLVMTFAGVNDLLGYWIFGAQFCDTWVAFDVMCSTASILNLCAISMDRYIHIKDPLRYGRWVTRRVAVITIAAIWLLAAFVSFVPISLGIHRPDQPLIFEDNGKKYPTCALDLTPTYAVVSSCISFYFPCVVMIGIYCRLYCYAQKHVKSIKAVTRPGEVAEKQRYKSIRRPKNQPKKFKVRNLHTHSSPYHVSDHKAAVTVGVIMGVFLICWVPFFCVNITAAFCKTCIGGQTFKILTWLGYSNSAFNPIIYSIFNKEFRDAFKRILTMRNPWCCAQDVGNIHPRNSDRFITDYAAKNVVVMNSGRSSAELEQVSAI", "conditions": "10 μM dopamine, Clones C and 2, 1×10^6 cells/well, FIG. 7", "description": "(§6) These cells were then transferred to 96-well microtitre plates a final concentrations of 2×10^5 cells/well and 1×10^6 cells/well. […] 2 replicates/clone/concentrations were set up.\n(§7) After incubation for 5 hours at 37° C. in an atmosphere of 10% CO2, a chlorophenol red β-D-galactopyranoside (CPRG) solution was added. The solution comprised 11.4 mg CPRG (Boehringer), 500 μl 10× Z buffer, 75 μl 20% SDS, 5 ml H2O and 7 μl ercaptoethanol. 10× Z buffer consists of 0.47M Na2HPO4(2H2O), 0.4M NaH2PO4(2H2O), 0.1M KCI, 10 mM MgSO4(7H2O), adjusted to pH 7.0 with NaOH solution."}, "[6]": {"tested_on": "serotonin receptor", "experiment": "β-galactosidase (CRE reporter) assay using serotonin clones of MEL C88L cells", "description": "as §6, §7"}, "[7]": {"conditions": "yohimbine 0.1, 1 and 2.5 μM, FIG. 4"}}, "data": [{"smiles": "CN(C)CCCN1c2ccccc2Sc2ccc(Cl)cc21", "note": "[Chlorpromazine]", "values": [{"measurement": "antagonism of the Ca2+ increase induced by TA", "setting": "[1]", "result": "clearly inhibited"}, {"measurement": "antagonism of the effect of TA on cAMP", "setting": "[2]", "result": "antagonistic effects"}]}, {"smiles": "C=C[C@@]1(C)CC(=O)[C@]2(O)[C@@]3(C)[C@@H](O)CCC(C)(C)[C@@H]3[C@H](O)[C@H](OC(C)=O)[C@@]2(C)O1", "note": "[Forskolin, forskolin]", "values": [{"measurement": "increase of cAMP level", "setting": "[3]; 10 μM forskolin with or without TA", "result": "more than 6 times"}]}, {"smiles": "NCC(O)c1ccc(O)cc1", "note": "(centres unmarked) [OA, octopamine]", "values": [{"measurement": "Ca2+ increase compared with TA", "setting": "[1]; OA 0.5 μM versus TA 10 nM (50 times higher concentration), FIG. 3", "result": "much lesser extent than TA"}]}, {"smiles": "NCCc1ccc(O)cc1", "note": "[TA, tyramine]", "values": [{"measurement": "TA concentration giving maximal Ca2+ response", "setting": "[1]; MEL-TyrLoc clone, FIG. 2", "result": 1, "unit": "µM"}, {"measurement": "Ca2+ increase after addition of TA", "setting": "[1]; MEL-TyrLoc clone, dose-response 0.01 μM upwards, FIG. 2", "result": "clear transient increase in Ca^2+"}, {"measurement": "activating concentrations lower than OA", "setting": "[1]; TA versus OA as agonist of TyrLoc in MEL-TyrLoc cells (summary of Ca2+ and cAMP results)", "result": "3–4 orders of magnitude"}, {"measurement": "Ca2+ response in untransformed cells", "setting": "[4]", "result": "no response"}, {"measurement": "inhibition of forskolin-induced increase of cAMP", "setting": "[2]; 200 μM IBMX", "result": "significantly inhibits"}, {"measurement": "inhibition of forskolin-induced increase of cAMP", "setting": "[2]; 200 μM IBMX, listed as tyramine", "result": "inhibition"}, {"measurement": "TA concentration giving maximal response (cAMP inhibition)", "setting": "[2]; 10 μM Fsk, 200 μM IBMX", "result": 1, "unit": "µM"}, {"measurement": "TA concentration giving minimal response (cAMP inhibition)", "setting": "[2]; 10 μM Fsk, 200 μM IBMX", "result": 1, "unit": "nM"}, {"measurement": "decrease in cAMP production with 1 μM TA when compared to 1 μM OA", "setting": "[2]; 10 μM Fsk, 200 μM IBMX", "result": 4, "unit": "fold"}, {"measurement": "effect on cAMP level in untransformed cells", "setting": "[3]; 1 μM TA, 30 min", "result": "did not result in any effect"}]}, {"smiles": "COC(=O)[C@@H]1[C@H]2C[C@H]3c4[nH]c5ccccc5c4CCN3C[C@@H]2CC[C@@H]1O", "note": "[Yohimbine]", "values": [{"measurement": "antagonism of the Ca2+ increase induced by TA", "setting": "[1]", "result": "strongest antagonist"}, {"measurement": "antagonism of the Ca2+ increase induced by TA", "setting": "[1]; listed as yohimbine", "result": "better receptor antagonist than chlorpromazine and mianserin"}, {"measurement": "inhibition of the Ca2+ response to 0.5 μM TA", "setting": "[1]; [7]", "result": "concentration-dependent inhibition"}, {"measurement": "inhibition of the Ca2+ response to 5 μM TA", "setting": "[1]; [7]", "result": "could not inhibit"}, {"measurement": "inhibition of the Ca2+ response to 0.5 μM TA", "setting": "[1]; yohimbine 0.1, 1 and 2.5 μM, FIG. 4, listed as yohimbin", "result": "inhibition"}, {"measurement": "antagonism of the effect of TA on cAMP", "setting": "[2]", "result": "inhibited the effect of TA in a dose dependent manner"}]}, {"smiles": "NCCc1ccc(O)c(O)c1", "note": "[dopamine]", "values": [{"measurement": "absorbance at 570 nm (β-galactosidase, indicating cyclic AMP) with dopamine", "setting": "[5]", "result": "increase in absorbance at 570 nm"}]}, {"smiles": "C[C@H](CCC(=O)O)C[C@H](C)C[C@H](C)C(=O)/C=C(\\O)[C@H](C)C[C@H](C)C/C=C/[C@@H](C)[C@@H](O)[C@@H](C)[C@@H](O)C[C@@H]1CC[C@@](C)([C@H]2CC[C@@](C)([C@@H](C)O)O2)O1", "note": "[ionomycin]", "values": [{"measurement": "intracellular Ca2+ concentration after ionophore", "setting": "[1]; 2 μM ionomycin, check of fura-2 loading", "result": "large increase"}]}, {"smiles": "CCN(CC)CCNC(=O)c1cc(Cl)c(N)cc1OC", "note": "[metaclopramide]", "values": [{"measurement": "effect on basal Ca2+ concentrations or on the response of the cells to TA", "setting": "[1]; at concentrations below 20 μM", "result": "no detectable effect"}]}, {"smiles": "CN1CCN2c3ccccc3Cc3ccccc3C2C1", "note": "(centres unmarked) [mianserin]", "values": [{"measurement": "antagonism of the Ca2+ increase induced by TA", "setting": "[1]", "result": "clearly inhibited"}, {"measurement": "antagonism of the effect of TA on cAMP", "setting": "[2]", "result": "antagonistic effects"}]}, {"smiles": "c1ccc2c(CC3=NCCN3)cccc2c1", "note": "[naphazoline]", "values": [{"measurement": "antagonism of the Ca2+ increase induced by TA", "setting": "[1]", "result": "weak antagonists"}]}, {"smiles": "NCCc1c[nH]c2ccc(O)cc12", "note": "[serotonin]", "values": [{"measurement": "forskolin stimulated cAMP in the presence of serotonin", "setting": "[6]; forskolin and serotonin", "result": "decrease in forskolin stimulated cAMP"}, {"measurement": "cyclic AMP signal with serotonin alone", "setting": "[6]; serotonin alone", "result": "no effect"}]}, {"smiles": "c1ccc(CC2=NCCN2)cc1", "note": "[tolazoline]", "values": [{"measurement": "antagonism of the Ca2+ increase induced by TA", "setting": "[1]", "result": "weak antagonists"}]}]}
